From patent publication US8455528B2, “Imidazole derivatives useful as inhibitors of FAAH” (Merck Sharp & Dohme Corp., priority 2008, dated 2013)
Structures can show the parent of a compound that is named as a salt.

target: T1, Human FAAH (Homo sapiens, UniProt O00519); experiment: Human FAAH lysate assay (CHO cell lysate, AAMCA fluorescent substrate); type: biochemical; conditions: FAAH inhibition, CHO cell lysate expressing human FAAH; read-out: Human Lysate
T1 construct: The full length FAAH was subcloned into the mammalian expression vector, pcDEF.neo; expressed in transfected cells
T1 sequence (O00519 1-579): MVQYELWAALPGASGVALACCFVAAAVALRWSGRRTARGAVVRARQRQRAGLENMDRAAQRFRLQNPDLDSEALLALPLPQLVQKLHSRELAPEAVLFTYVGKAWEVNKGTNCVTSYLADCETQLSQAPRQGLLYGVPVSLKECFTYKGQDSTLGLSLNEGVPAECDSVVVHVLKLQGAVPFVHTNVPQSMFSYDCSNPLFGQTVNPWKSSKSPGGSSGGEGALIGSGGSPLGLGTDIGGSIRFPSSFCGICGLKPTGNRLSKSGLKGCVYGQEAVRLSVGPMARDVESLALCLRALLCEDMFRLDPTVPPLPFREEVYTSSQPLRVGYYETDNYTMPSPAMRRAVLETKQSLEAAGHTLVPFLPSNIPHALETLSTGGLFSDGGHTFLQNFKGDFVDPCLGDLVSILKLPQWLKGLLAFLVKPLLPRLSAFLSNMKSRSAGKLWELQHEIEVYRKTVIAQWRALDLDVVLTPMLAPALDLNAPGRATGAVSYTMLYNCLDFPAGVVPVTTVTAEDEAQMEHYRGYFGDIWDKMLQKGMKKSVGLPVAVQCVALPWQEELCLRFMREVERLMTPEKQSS
Text: To assist in assay development stable cell lines for human, murine and rat full length FAAH were developed. Human FAAH cDNA (Accession No: NM-001441.1) was purchased from Origene (Rockville, Md.). The full length FAAH was subcloned into the mammalian expression vector, pcDEF.neo, using XbaI and EcoRI restriction sites and used for stable cell line generation. CHO cells expressing FAAH were used to prepare either crude cell lysate or microsome fractions. To harvest cells, tissue culture media was decanted, the monolayer washed three times with Ca^++Mg^++ free PBS and cells recovered after 15 min in enzyme free dissociation media (Millipore Corp, Billerica, Mass.). Cells were collected by centrifuging at 2000 rpm for 15 min. and the cell pellet re-suspended with 50 mM HEPES (pH 7.4) containing 1 mM EDTA and the protease inhibitors aprotinin (1 mg/ml) and leupeptin (100 μM). […] The pellet containing FAAH-enriched microsomes was re-suspend in 50 mM HEPES, (pH 7,4) 1 mM EDTA, and any remaining DNA sheared by passage of material through a 23 gauge needle and aliquots of enzyme were store at -80° C. prior to use. […] (American Radiolabeled Chemicals; 1 mCi/ml) with FAAH (Life Sciences (1995), 56, 1999-2005 and Journal of Pharmacology and Experimented Therapeutics (1997), 283, 729-734), Analytical. Biochemistry (2003), 318, 270-5. […] Analytical. Biochemistry (2005). 343, 143-51 […] Fluorescent release as a measure of FAAH activity was monitored by reading the plate in a CytoFluor Multiplate Reader ([…]). Whole cell assay is conducted with cells harvested after rinsing tissue culture flasks three times with Ca^++Mg^++ free PBS, incubating for 10 min in Enzyme free dissociation media and centrifuging for 5 minutes at 1,000 rpm in table top centrifuge. Cells are resuspended in assay buffer at desired cell number in (4×10^4 cells/assay in 96-well format; 1×10^4 cells/assay in 384-well format) and assayed as described. […] The reaction was terminated by addition of 2 volumes of chloroform:methanol (1:1) and mixed by vortexing. […] K., et al. A fluorescence-based assay for fatty acid amide hydrolase compatible with high-throughput screening. Anal. Biochem. 343:143-51 (2005) • Wilson S. J., et l. A high-throughput-compatible assay for determining the activity of fatty acid amide hydrolase. Anal Biochem. 318:270-5 (2003).

| SMILES | IC50 [nM] |
| --- | --- |
| Cn1c(-c2ccccc2)nc(Sc2ccc(Cl)cc2)c1-c1ccc(C#N)cc1 [Ex 3, 4-{4-[(4-chlorophenyl)thio]-1-methyl-2-phenyl-1H-imidazol-5-yl}benzonitrile] | 370 |

same assay, conditions: human FAAH lysate; read-out: Human FAAH lysate assay: IC50

| SMILES | IC50 [nM] |
| --- | --- |
| Cn1c(-c2ccccn2)nc(-c2ccc(S(C)(=O)=O)nc2)c1Sc1ccc(Cl)cn1 [Example 100, 5-Chloro-2-({1-methyl-4-[6-(methylsulfonyl)pyridin-3-yl]-2-pyridin-2-yl-1H-imidazol-5-yl}thio)pyridine] | 48 |
| Cn1c(-c2ccccn2)nc(-c2ccc(C(C)(C)O)nc2)c1Sc1ccc(Cl)cc1 [Example 105, 2-(5-{5-[(4-Chlorophenyl)thio]-1-methyl-2-pyridin-2-yl-1H-imidazol-4-yl}pyridin-2-yl)propan-2-ol] | 37.8 |
| Cn1c(-c2ccccn2)nc(-c2ccc(-c3ccco3)cc2)c1Sc1ccc(Cl)cc1 [Example 116, 5-[(4-chlorophenyl)thio]-4-[4-(2-furyl)phenyl]-1-methyl-2-pyridin-2-yl-1H-imidazol-3-ium trifluoroacetate] | 17.5 |
| Cn1c(-c2ccccn2)nc(-c2ccc(-c3nccs3)cc2)c1Sc1ccc(Cl)cc1 [Example 119, 2-{5-[(4-chlorophenyl)thio]-1-methyl-4-[4-(1,3-thiazol-2-yl)phenyl]-1H-imidazol-2-yl}pyridine] | 14.3 |
| Cn1cnc(-c2ccc(OC(C)(C)C(N)=O)cc2)c1Sc1ccc(Cl)cn1 [Example 124, 2-(4-{5-[(5-chloropyridin-2-yl)thio]-1-methyl-1H-imidazol-4-yl}phenoxy)-2-methylpropanamide] | 36 |
| Cn1cnc(-c2ccc(OC(C)(C)CO)cc2)c1Sc1ccc(Cl)cn1 [Example 125, 5-[(5-chloropyridin-2-yl)thio]-4-[4-(2-hydroxy-1,1-dimethylethoxy)phenyl]-1-methyl-1H-imidazol-3-ium trifluoroacetate] | 198 |
| Cn1cnc(-c2ccc(OC(C)(C)C(O)C(F)(F)F)cc2)c1Sc1ccc(Cl)cn1 (stereo not drawn) [Example 126, 3-(4-{5-[(5-chloropyridin-2-yl)thio]-1-methyl-1H-imidazol-4-yl}phenoxy)-1,1,1-trifluoro-3-methylbutan-2-ol] | 186 |
| CC(CO)NC(=O)c1ccc(-c2nc(-c3ccccn3)n(C)c2Sc2ccc(Cl)cc2)cc1 (stereo not drawn) [Example 127, 4-{5-[(4-chlorophenyl)thio]-1-methyl-2-pyridin-2-yl-1H-imidazol-4-yl}-N-(2-hydroxy-1-methylethyl)benzamide] | 77.9 |
| CS(=O)(=O)c1ccc(-c2nc3n(c2Sc2ccc(Cl)cc2)CCC2CCCNC32)cc1 (stereo not drawn) [Example 128, 3-[(4-chlorophenyl)thio]-2-[4-(methylsulfonyl)phenyl]-5,6,6a,7,8,9,10,10a-octahydroimidazo[1,2-h]-1,7-naphthyridine] | 98 |
| CC(C)(O)c1ccc(-c2nc3c4ncccc4ccn3c2Sc2ccc(Cl)cc2)cc1 [Example 130, 2-(4-{3-[(4-chlorophenyl)sulfanyl]imidazo[1,2-h][1,7]naphthyridin-2-yl}phenyl)propan-2-ol] | 47.1 |
| Cn1c(C2CC2)nc(-c2ccc3nc(C(F)F)ccc3c2)c1Sc1ccc(Cl)cn1 [Example 131, 6-{5-[(5-chloropyridin-2-sulfanyl]-2-cyclopropyl-1-methyl-1H-imidazol-4-yl}-2-difluoromethyl)quinoline] | 17.9 |
| Cn1c(I)nc(-c2ccc(S(C)(=O)=O)cc2)c1Sc1ccc(Cl)cc1 [Example 133, 5-[(4-chlorophenyl)thio]-2-iodo-1-methyl-4-[4-(methylsulfonyl)phenyl]-1H-imidazole] | 15.6 |
| Cn1cc(-c2nc(-c3ccc(S(C)(=O)=O)cc3)c(Sc3ccc(Cl)cc3)n2C)cn1 [Example 134, 4-{5-[(4-chlorophenyl)sulfanyl]-1-methyl-4-[4-(methylsulfonyl)phenyl]-1H-imidazol-2-yl}-1-methyl-1H-pyrazole] | 13.9 |
| Cn1c(-c2cccs2)nc(-c2ccc(S(C)(=O)=O)cc2)c1Sc1ccc(Cl)cc1 [Example 137, 5-[(4-chlorophenyl)sulfanyl]-1-methyl-4-[4-(methylsulfonyl)phenyl]-2-(thiophen-2-yl)-1H-imidazole] | 16.5 |

same assay, conditions: human FAAH lysate; read-out: hFAAH lysate IC50

| SMILES | IC50 [nM] |
| --- | --- |
| Cn1c(-c2ccccn2)nc(-c2ccc(S(C)(=O)=O)nc2)c1Sc1ccc(Cl)cc1 [Example 101] | 6.3 |
| Cn1c(-c2ccccn2)nc(-c2ccc(S(C)(=O)=O)nc2)c1Sc1ccc(F)cc1F [Example 102] | 15.4 |
| Cn1c(-c2ccccn2)nc(-c2ccc(S(C)(=O)=O)nc2)c1Sc1ccc(F)c(F)c1 [Example 103] | 37.6 |
| COc1cnc(Sc2c(-c3ccc(S(C)(=O)=O)nc3)nc(-c3ccccn3)n2C)nc1 [Example 104] | 202 |
| Cn1c(-c2ccccn2)nc(-c2ccc(C(C)(C)O)nc2)c1Sc1ccc(Cl)cn1 [Example 106] | 37.8 |
| Cn1c(-c2ccccn2)nc(-c2ccc(C(C)(C)O)nc2)c1Sc1ccc(F)c(F)c1 [Example 107] | 60.2 |
| Cn1c(-c2ccccn2)nc(-c2ccc(C(C)(C)O)nc2)c1Sc1ccc(F)cc1F [Example 108] | 33.2 |
| Cn1c(-c2ccccn2)nc(-c2ccc(C(C)(C)O)nc2)c1Sc1ccc(F)cn1 [Example 109] | 134 |
| Cn1c(-c2ccccn2)nc(-c2ccc(C(C)(C)O)nc2)c1Sc1ccc(Cl)cc1F [Example 110] | 33.7 |
| Cn1c(-c2ccc(F)c(F)c2)nc(-c2ccc(C(C)(C)O)nc2)c1Sc1ccc(Cl)cc1F [Example 112] | 114 |
| Cn1c(-c2ccc(F)cc2)nc(-c2ccc(C(C)(C)O)nc2)c1Sc1ccc(Cl)cc1F [Example 113] | 67.9 |
| Cn1c(-c2ccc(F)c(F)c2)nc(-c2ccc(C(C)(C)O)nc2)c1Sc1ccc(Cl)cc1 [Example 114] | 87.4 |
| Cn1c(-c2ccc(F)cc2)nc(-c2ccc(C(C)(C)O)nc2)c1Sc1ccc(Cl)cc1 [Example 115] | 67 |
| Cn1c(-c2ccccn2)nc(-c2ccc(-c3ccsc3)cc2)c1Sc1ccc(Cl)cc1 [Example 117] | 8.7 |
| Cn1c(-c2ccccn2)nc(-c2ccc(-c3ccncc3)cc2)c1Sc1ccc(Cl)cn1 [Example 118] | 7.7 |
| Cn1c(-c2ccccn2)nc(-c2ccc(-c3ncco3)cc2)c1Sc1ccc(Cl)cn1 [Example 120] | 26.4 |
| Cn1c(-c2ccccn2)nc(-c2ccc(-c3cccs3)cc2)c1Sc1ccc(Cl)cc1 [Example 121] | 18.5 |
| Cn1c(-c2ccccn2)nc(-c2ccc(-c3ccnnc3)cc2)c1Sc1ccc(Cl)cn1 [Example 122] | 15.7 |
| COC(=O)c1ccc(-c2nc3c4ncccc4ccn3c2Sc2ccc(Cl)cc2)cc1 [Example 129] | 12.2 |
| CN(C)C(=O)c1ccc2cc(-c3nc(C4CC4)n(C)c3Sc3ccc(Cl)cn3)ccc2n1 [Example 132, 6-{5-[(5-chloropyridin-2-yl)thio]-2-cyclopropyl-1-methyl-1H-imidazol-4-yl}-N,N-dimethylquinoline-2-carboxamide] | 144 |
| Cn1c(-c2ccsc2)nc(-c2ccc(S(C)(=O)=O)cc2)c1Sc1ccc(Cl)cc1 [Example 135] | 25.9 |
| COc1ccc(-c2nc(-c3ccc(S(C)(=O)=O)cc3)c(Sc3ccc(Cl)cc3)n2C)cn1 [Example 136] | 122 |
| Cn1c(-c2nccs2)nc(-c2ccc(S(C)(=O)=O)cc2)c1Sc1ccc(Cl)cc1 [Example 138] | 24.8 |
| Cn1c(-c2ncco2)nc(-c2ccc(S(C)(=O)=O)cc2)c1Sc1ccc(Cl)cc1 [Example 139] | 21.2 |
